Data as given in publication PMC12334614, “Chidamide and cytarabine synergistically treat acute myeloid leukemia: inhibiting ribosome biogenesis via the MYC-RRP9 pathway” (Cell Death & Disease, 2025).

Tests used:
c-MYC = target: T1, c-MYC (Homo sapiens, UniProt P01106); assay: SPR (Biacore X100, steady-state affinity); assay type: binding
T1 construct: recombinant c-MYC protein (RayBiotech) immobilized on CM5 chip

MYC = target: T2, MYC (Homo sapiens, UniProt P01106, A416G/K413A/P406A/V409A); assay: SPR (Biacore X100, steady-state affinity); assay type: binding
T2 construct: recombinant MYC protein carrying the predicted substitutions (MedChemExpress HY-P7S1056)
T2 sequence (P01106 16-454 P406A/V409A/K413A/A416G): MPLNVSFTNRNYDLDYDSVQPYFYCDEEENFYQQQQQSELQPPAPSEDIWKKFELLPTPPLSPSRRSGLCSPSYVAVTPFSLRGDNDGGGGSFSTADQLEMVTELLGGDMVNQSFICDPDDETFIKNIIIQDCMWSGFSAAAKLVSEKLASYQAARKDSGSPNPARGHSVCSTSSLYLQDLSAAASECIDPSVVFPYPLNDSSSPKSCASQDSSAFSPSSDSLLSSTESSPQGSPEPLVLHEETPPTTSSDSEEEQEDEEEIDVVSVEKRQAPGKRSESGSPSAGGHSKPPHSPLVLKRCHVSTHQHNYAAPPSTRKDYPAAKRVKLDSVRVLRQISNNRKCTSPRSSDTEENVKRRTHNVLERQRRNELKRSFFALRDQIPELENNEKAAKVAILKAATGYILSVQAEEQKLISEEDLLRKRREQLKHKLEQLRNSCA

T1 sequence (P01106 16-454): as the sequence (P01106 16-454 P406A/V409A/K413A/A416G) above, with A391P, A394V, A398K, G401A counted along it

Question: For Nc1cc(F)ccc1NC(=O)c1ccc(CNC(=O)/C=C/c2cccnc2)cc1 [chidamide], which Kd (c-MYC) is on record?
Answer: The Kd was 795 nM.

Question: And the Kd (MYC)?
Answer: Its Kd is 3120 nM.
